Patent US3965180A, “4'-Fluoro-4-{[4-(phenyl)-4-alkoxy-cyclo-hexyl]amino}butyrophenones and the salts thereof” (The Upjohn Company, priority 1973, dated 1976)
Structures can show the parent of a compound that is named as a salt.

How the values were obtained:
Assay type in all cases: in vivo
[1] = system: mice; assay: Chimney test (ability of mice to back up and out of a vertical glass cylinder within 30 seconds); settings: Mus musculus, ip, intraperitoneal injection, dose at which 50% of the mice failed to back out within 30 seconds, read-out: ED50, Ch = chimney test
From the text: (§1) The free bases and acid addition salts of the novel compounds of Formula I are useful as central nervous system (CNS) depressants when administered to humans and animals.
(§2) Tranquilizing effects of certain compounds of this invention are shown by the following tests in mice:
Chimney test: [Med. Exp. 4, 145 (1961)]: The test determines the ability of mice to back up and out of a vertical glass cylinder within 30 seconds. At the effective dosage, 50% of the mice failed doing it.

[2] = system: mice; assay: Dish test (mice remaining in Petri dish for more than 3 minutes); settings: Mus musculus, ip, 0.05 h, intraperitoneal injection, dose at which 50% of the mice remain in the dish more than 3 minutes, read-out: ED50, D = dish test
Description: as §1, §2
Dish test: Mice in Petri dishes (10 cm. diameter, 5 cm. high, partially embedded in wood shavings), climb out in a very short time, when not treated. Mice remaining in the dish for more than 3 minutes indicates tranquilization. ED50 equals the dose of test compound at which 50% of the mice remain in the dish.

[3] = system: mice; assay: Pedestal test (mice staying on the pedestal for more than 1 minute); settings: Mus musculus, ip, 1 min, intraperitoneal injection, stay on pedestal for more than 1 minute, read-out: ED50, P = pedestal test
Description: as §1, §2
Pedestal test: The untreated mouse leaves a standard pedestal in less than a minute to climb back to the floor of the standard mouse box. Tranquilized mice will stay on the pedestal for more than 1 minute.

[4] = system: mice; assay: Nicotine antagonism test (nicotine salicylate 2 mg./kg.; (3) death); settings: Mus musculus, ip, intraperitoneal injection 30 minutes before nicotine salicylate (2 mg./kg.), read-out: ED50, Ni = nicotine antagonism (3) test
Description: as §2
Nicotine antagonism test: Mice in a group of 6 are injected with the test compound. Thirty minutes later the mice including control (untreated) mice are injected with nicotine salicylate (2 mg./kg.). The control mice show overstimulation, i.e., (1) running convulsions followed by (2) tonic extensor fits; followed by (3) death.

Structure (SMILES)	ED50 [1] [mg/kg]	ED50 [2] [mg/kg]	ED50 [3] [mg/kg]	ED50 [4] [mg/kg]
CO[C@]1(c2ccc(F)cc2)CC[C@@H](NCCCC(=O)c2ccc(F)cc2)CC1 [4'-fluoro-4-{[4-cis-(p-fluorophenyl)-4-transmethoxycyclohexyl]amino}butyrophenone hydrohydrochloride (I)]	8	1.6	2.5	3.2
CO[C@]1(c2ccc(F)cc2)CC[C@H](NCCCC(=O)c2ccc(F)cc2)CC1 [4'-fluoro-4-{[4-trans-(p-fluorophenyl)-4-cis-methoxycyclohexyl]amino}butyrophenone hydrochloride (I)]	2.5	0.09	1.3	0.4
CO[C@]1(c2ccc(C)cc2)CC[C@H](NCCCC(=O)c2ccc(F)cc2)CC1 [4'-fluoro-4-{[4-cis-methoxy-4-trans-(p-methylphenyl)cyclohexyl]amino}butyrophenone hydrochloride (I)]	2.5	1.1	2	4.5
